Laboratory results from patent publication US9107410B2, “Pesticidal compositions and processes related thereto” (Dow AgroSciences LLC, priority 2011, dated 2015).
Like-named read-outs stand apart in the source and are kept apart here.

Key:
Assay type in all cases: in vivo
[1] = system: Green Peach Aphid (GPA) (Myzus persicae); assay: Bioassay on green peach aphid (GPA), foliar spray on cabbage seedlings; details: 72 h, read-out: % Mortality GPA 200 ppm
Method: Certain molecules disclosed in this document were tested against GPA using procedures described in the following example. In the reporting of the results, the “GPA Rating Table” was used (See Table Section).
Cabbage seedlings grown in 3-inch pots, with 2-3 small (3-5 cm) true leaves, were used as test substrate. The seedlings were infested with 20-50 GPA (wingless adult and nymph stages) one day prior to chemical application. Four pots with individual seedlings were used for each treatment. Test compounds (2 mg) were dissolved in 2 mL of acetone/methanol (1:1) solvent, forming stock solutions of 1000 ppm test compound. The stock solutions were diluted 5× with 0.025% Tween 20 in H2O to obtain the solution at 200 ppm test compound. A hand-held aspirator-type sprayer was used for spraying a solution to both sides of […] leaves until runoff. Reference plants (solvent check) were sprayed with the diluent only containing 20% by volume of acetone/methanol (1:1) solvent. Treated plants were held in a holding room for three days at approximately 25° C. and ambient relative humidity (RH) prior to grading. Evaluation was conducted by counting the number of live aphids per plant under a microscope. Percent Control was measured by using Abbott's correction formula (W. S. Abbott, “A Method of Computing the Effectiveness of an Insecticide” J. Econ. Entomol. 18 (1925), pp. 265-267) as follows. Corrected % Control=100*(X−Y)/X • where • X=No. of live aphids on solvent check plants and • Y=No. of live aphids on treated plants

[2] = system: Corn Earworm (CEW) (Helicoverpa zea); assay: Bioassay on corn earworm (CEW), 128-well diet tray assay; details: 168 h, read-out: % Mortality CEW 50 μg/cm^2
Method: (§1) Certain molecules disclosed in this document were tested against BAW and CEW using procedures described in the following examples. In the reporting of the results, the “BAW & CEW Rating Table” was used (See Table Section).
Bioassays on CEW (Helicoverpa zea)
Bioassays on CEW were conducted using a 128-well diet tray assay. One to five second instar CEW larvae were placed in each well (3 mL) of the diet tray that had been previously filled with 1 mL of artificial diet to which 50 μg/cm^2 of the test compound (dissolved in 50 μL of 90:10 acetone-water mixture) had been applied (to each of eight wells) and then allowed to dry. Trays were covered with a clear self-adhesive cover, and held at 25° C., 14:10 light-dark for five to seven days. Percent mortality was recorded for the larvae in each well; activity in the eight wells was then averaged. The results are indicated in the table entitled “Table: Bio Results” (See Table Section).

[3] = system: Beet Armyworm (BAW) (Spodoptera exigua); assay: Bioassay on beet armyworm (BAW), 128-well diet tray assay; details: 168 h, read-out: % Mortality BAW 50 μg/cm^2
Method: as §1
Bioassays on BAW (Spodoptera exigua)
Bioassays on BAW were conducted using a 128-well diet tray assay. One to five second instar BAW larvae were placed in each well (3 mL) of the diet tray that had been previously filled with 1 mL of artificial diet to which 50 μg/cm^2 of the test compound (dissolved in 50 μL of 90:10 acetone-water mixture) had been applied (to each of eight wells) and then allowed to dry. Trays were covered with a clear self-adhesive cover, and held at 25° C., 14:10 light-dark for five to seven days. Percent mortality was recorded for the larvae in each well; activity in the eight wells was then averaged. The results are indicated in the table entitled “Table: Bio Results” (See Table Section).

[4] = 200 ppm foliar spray on cabbage seedlings, graded after three days, Abbott corrected % control
[5] = 50 μg/cm^2 on artificial diet, second instar larvae, 25° C., five to seven days, average of eight wells

Row | SMILES | mortality at 200 ppm ([1]; foliar) [%] | mortality at 50 µg/cm2 [2] [%] | mortality at 50 µg/cm2 [3] [%] | mortality at 200 ppm [1, 4] [%] | mortality at 50 µg/cm2 [2, 5] [%] | mortality at 50 µg/cm2 [3, 5] [%]
1 | O=C(NC1CC1c1ccc(-c2ncn(-c3ccc(OC(F)(F)F)cc3)n2)cc1)Oc1ccccc1 (stereo not drawn) [Compound 21, Phenyl 2-(4-(1-(4-(trifluoromethoxy)phenyl)-1H-1,2,4-triazol-3-yl)phenyl)cyclopropyl-carbamate] | 0 | 50 to 100 | 50 to 100 | – | – | –
2 | Cc1cc(F)ccc1OC(=O)NC1CC1c1ccc(-c2ncn(-c3ccc(OC(F)(F)F)cc3)n2)cc1 (stereo not drawn) [Compound 22, 4-Fluoro-2-methylphenyl 2-(4-(1-(4-(trifluoromethoxy)phenyl)-1H-1,2,4-triazol-3-yl)-phenyl)cyclopropylcarbamate] | 0 | 50 to 100 | 50 to 100 | – | – | –
3 | O=C(NC1CC1c1ccc(-c2ncn(-c3ccc(OC(F)(F)F)cc3)n2)cc1)Oc1ccccc1C1CCCC1 (stereo not drawn) [Compound 23, 2-Cyclopentylphenyl 2-(4-(1-(4-(trifluoromethoxy)phenyl)-1H-1,2,4-triazol-3-yl)phenyl)-cyclopropylcarbamate] | 0 to 80 | 50 to 100 | 0 | – | – | –
4 | CC(C)(C)c1ccccc1OC(=O)NC1CC1c1ccc(-c2ncn(-c3ccc(OC(F)(F)F)cc3)n2)cc1 (stereo not drawn) [Compound 24, 2-tert-Butylphenyl 2-(4-(1-(4-(trifluoromethoxy)phenyl)-1H-1,2,4-triazol-3-yl)phenyl)-cyclopropylcarbamate] | 0 to 80 | 0 | 50 to 100 | – | – | –
5 | O=C(NC1CC1c1ccc(-c2ncn(-c3ccc(OC(F)(F)F)cc3)n2)cc1)Oc1ccccc1C(F)(F)F (stereo not drawn) [Compound 25, 2-(Trifluoromethyl)phenyl 2-(4-(1-(4-(trifluoromethoxy)phenyl)-1H-1,2,4-triazol-3-yl)-phenyl)cyclopropylcarbamate] | 0 to 80 | 0 | 0 | – | – | –
6 | Cc1cc(C)c(OC(=O)NC2CC2c2ccc(-c3ncn(-c4ccc(OC(F)(F)F)cc4)n3)cc2)c(C)c1 (stereo not drawn) [Compound 26, Mesityl 2-(4-(1-(4-(trifluoromethoxy)phenyl)-1H-1,2,4-triazol-3-yl)phenyl)cyclopropyl-carbamate] | 0 | 0 to 50 | 50 to 100 | – | – | –
7 | COc1ccc(OC(=O)NC2CC2c2ccc(-c3ncn(-c4ccc(OC(F)(F)F)cc4)n3)cc2)cc1 (stereo not drawn) [Compound 27, 4-Methoxyphenyl 2-(4-(1-(4-(trifluoromethoxy)phenyl)-1H-1,2,4-triazol-3-yl)phenyl)-cyclopropylcarbamate] | 0 | 50 to 100 | 0 to 50 | – | – | –
8 | O=C(NC1CC1c1ccc(-c2ncn(-c3ccc(OC(F)(F)F)cc3)n2)cc1)Oc1c(Cl)cccc1Cl (stereo not drawn) [Compound 28, 2,6-Dichlorophenyl 2-(4-(1-(4-(trifluoromethoxy)phenyl)-1H-1,2,4-triazol-3-yl)phenyl)-cyclopropylcarbamate] | 0 to 80 | 0 | 0 | – | – | –
9 | CC(C)c1ccccc1OC(=O)NC1CC1c1ccc(-c2ncn(-c3ccc(OC(F)(F)F)cc3)n2)cc1 (stereo not drawn) [Compound 29, 2-Isopropylphenyl 2-(4-(1-(4-(trifluoromethoxy)phenyl)-1H-1,2,4-triazol-3-yl)phenyl)-cyclopropylcarbamate] | 0 | 50 to 100 | 50 to 100 | – | – | –
10 | Cc1cc(C)c(NC(=O)NC2CC2c2ccc(-c3ncn(-c4ccc(OC(F)(F)F)cc4)n3)cc2)c(C)c1 (stereo not drawn) [Compound 30, 1-Mesityl-3-(2-(4-(1-(4-(trifluoromethoxy)phenyl)-1H-1,2,4-triazol-3-yl)phenyl)-cyclopropyl)urea] | – | – | – | 0 to 80 | 0 | 0
11 | O=C(Nc1c(Cl)cccc1Cl)NC1CC1c1ccc(-c2ncn(-c3ccc(OC(F)(F)F)cc3)n2)cc1 (stereo not drawn) [Compound 31, 1-(2,6-Dichlorophenyl)-3-(2-(4-(1-(4-(trifluoromethoxy)phenyl)-1H-1,2,4-triazol-3-yl)phenyl)cyclopropyl)urea] | – | – | – | 0 | 0 | 0
12 | O=C(NC1CC1c1ccc(-c2ncn(-c3ccc(OC(F)(F)F)cc3)n2)cc1)NC1CC1c1ccc(-c2ncn(-c3ccc(OC(F)(F)F)cc3)n2)cc1 (stereo not drawn) [Compound 32, 1,3-bis(2-(4-(1-(4-(trifluoromethoxy)phenyl)-1H-1,2,4-triazol-3-yl)phenyl)cyclopropyl)urea] | – | – | – | 0 to 80 | 50 to 100 | 0
